Test results as given in US7402548B2, “Benzoxazole compounds, process for producing the same and herbicides” (Kyoyu Agri Co., Ltd., priority 2000, dated 2008).

Experiments:
livid amaranth [1] = assay: Soil treatment test for upland field; type: in vivo, Amaranthus lividus; set-up: key: 0 = normal development, 5 = all killed; settings: 500 g/ha, 3 weeks, glass house 25° C.
Protocol: (§1) The herbicidal effects are evaluated according to the following 6 ranks as compared with non-treated district. (0: normal development, 1: Less damaged, 2: Slightly damaged, 3: Moderately damaged, 4: Severely damaged, 5: All killed). Incidentally, “-” in the column means not investigated.
(§2) Wagner pots, each having an area of 1/5000 are, were packed with Ube soil (alluvial soil), and then each seed of corn, soybean, cotton, wheat, solgum, sugar beat, Large crabgrass, barnyard grass, green foxtail, blackgrass, annual bluegrass, common lambsquarters, livid amaranth, velvetleaf, morning glory, common Cocklebur (Xanthium strumarium) and sicklepod (Cassia obtusifolia) were planted and covered with soil.
(§3) Each wettable powder of the desired compounds (I) shown in Tables 1 to 21, 24, 25, 28 and 29 prepared in accordance with Example 2 was diluted with water containing a surfactant (0.05%) and uniformly sprayed on the surface of each soil so that an effective concentration of the compound (I) in each herbicide became 500 g/ha.
(§4) These plants were controlled in a glass house at an average temperature of 25° C. for 3 weeks, and then herbicidal effects thereof were investigated.
(§5) The herbicidal effects were evaluated according to the evaluation method described in the above (1).

Large crabgrass [2] = assay: Foliar spread test for upland field; type: in vivo, Digitaria adscendens; set-up: key: 0 = normal development, 5 = all killed (6 ranks vs. untreated); settings: foliar spray, 500 ppm, 3 weeks, glass house 25° C.
Protocol: as §1
(§6) Wagner pots, each having an area of 1/5000 are, were packed with volcanic ash soil and then each seed of corn, soybean, cotton, wheat, solgum, sugar beat, Large crabgrass, barnyardgrjass, green foxtail, blackgrass, annual bluegrass, common lambsquarters, livid amaranth, velvetleaf, morning glory, Xanthium pensylvanicum and Cassia obtusifolia was planted, covered with soil and grown in a glass house at an average temperature of 25° C. for about 2 weeks.
(§7) Each wettable powder of the desired compounds (I) shown in Tables 1 to 21, 24, 25, 28 and 29 prepared in accordance with Example 2 was diluted to 500 ppm with water containing a surfactant (0.5%) and then uniformly sprayed on the above respective plants.
(§8) After these plants were controlled in a glass house at an average temperature of 25° C. for 3 weeks, the herbicidal effects thereof were investigated.
as §5

soybean = assay: Foliar spread test for upland field; type: in vivo; set-up: key: 0 = normal development, 5 = all killed (6 ranks vs. untreated); settings: foliar spray, 500 ppm, 3 weeks, glass house 25° C.
Protocol: as §1, §6, §7, §8, §5

sugar beat [3] = assay: Foliar spread test for upland field; type: in vivo; set-up: key: 0 = normal development, 5 = all killed (6 ranks vs. untreated); settings: foliar spray, 500 ppm, 3 weeks, glass house 25° C.
Protocol: as §1, §6, §7, §8, §5

corn [4] = assay: Foliar spread test for upland field; type: in vivo; set-up: key: 0 = normal development, 5 = all killed (6 ranks vs. untreated); settings: foliar spray, 500 ppm, 3 weeks, glass house 25° C.
Protocol: as §1, §6, §7, §8, §5

cotton = assay: Foliar spread test for upland field; type: in vivo; set-up: key: 0 = normal development, 5 = all killed (6 ranks vs. untreated); settings: foliar spray, 500 ppm, 3 weeks, glass house 25° C.
Protocol: as §1, §6, §7, §8, §5

wheat [5] = assay: Foliar spread test for upland field; type: in vivo; set-up: key: 0 = normal development, 5 = all killed (6 ranks vs. untreated); settings: foliar spray, 500 ppm, 3 weeks, glass house 25° C.
Protocol: as §1, §6, §7, §8, §5

solgum [6] = assay: Foliar spread test for upland field; type: in vivo; set-up: key: 0 = normal development, 5 = all killed (6 ranks vs. untreated); settings: foliar spray, 500 ppm, 3 weeks, glass house 25° C.
Protocol: as §1, §6, §7, §8, §5

morning glory [7] = assay: Foliar spread test for upland field; type: in vivo, Ipomoea spps.; set-up: key: 0 = normal development, 5 = all killed (6 ranks vs. untreated); settings: foliar spray, 500 ppm, 3 weeks, glass house 25° C.
Protocol: as §1, §6, §7, §8, §5

common lambsquarters [8] = assay: Soil treatment test for upland field; type: in vivo, Chenopodium album; set-up: key: 0 = normal development, 5 = all killed; settings: 500 g/ha, 3 weeks, glass house 25° C.
Protocol: as §1, §2, §3, §4, §5

annual bluegrass [9] = assay: Soil treatment test for upland field; type: in vivo, Poa annua; set-up: key: 0 = normal development, 5 = all killed; settings: 500 g/ha, 3 weeks, glass house 25° C.
Protocol: as §1, §2, §3, §4, §5

livid amaranth [10] = assay: Foliar spread test for upland field; type: in vivo, Amaranthus lividus; set-up: key: 0 = normal development, 5 = all killed (6 ranks vs. untreated); settings: foliar spray, 500 ppm, 3 weeks, glass house 25° C.
Protocol: as §1, §6, §7, §8, §5

annual bluegrass [11] = assay: Foliar spread test for upland field; type: in vivo, Poa annua; set-up: key: 0 = normal development, 5 = all killed (6 ranks vs. untreated); settings: foliar spray, 500 ppm, 3 weeks, glass house 25° C.
Protocol: as §1, §6, §7, §8, §5

morning glory [12] = assay: Soil treatment test for upland field; type: in vivo, Ipomoea spps.; set-up: key: 0 = normal development, 5 = all killed; settings: 500 g/ha, 3 weeks, glass house 25° C.
Protocol: as §1, §2, §3, §4, §5

sugar beat [13] = assay: Soil treatment test for upland field; type: in vivo; set-up: key: 0 = normal development, 5 = all killed; settings: 500 g/ha, 3 weeks, glass house 25° C.
Protocol: as §1, §2, §3, §4, §5

corn [14] = assay: Soil treatment test for upland field; type: in vivo; set-up: key: 0 = normal development, 5 = all killed; settings: 500 g/ha, 3 weeks, glass house 25° C.
Protocol: as §1, §2, §3, §4, §5

wheat [15] = assay: Soil treatment test for upland field; type: in vivo; set-up: key: 0 = normal development, 5 = all killed; settings: 500 g/ha, 3 weeks, glass house 25° C.
Protocol: as §1, §2, §3, §4, §5

solgum [16] = assay: Soil treatment test for upland field; type: in vivo; set-up: key: 0 = normal development, 5 = all killed; settings: 500 g/ha, 3 weeks, glass house 25° C.
Protocol: as §1, §2, §3, §4, §5

green foxtail [17] = assay: Soil treatment test for upland field; type: in vivo, Setaria viridis; set-up: key: 0 = normal development, 5 = all killed; settings: 500 g/ha, 3 weeks, glass house 25° C.
Protocol: as §1, §2, §3, §4, §5

velvetleaf [18] = assay: Soil treatment test for upland field; type: in vivo, Abutilon theophrasti; set-up: key: 0 = normal development, 5 = all killed; settings: 500 g/ha, 3 weeks, glass house 25° C.
Protocol: as §1, §2, §3, §4, §5

blackgrass [19] = assay: Foliar spread test for upland field; type: in vivo, Alopecurus aegualis; set-up: key: 0 = normal development, 5 = all killed (6 ranks vs. untreated); settings: foliar spray, 500 ppm, 3 weeks, glass house 25° C.
Protocol: as §1, §6, §7, §8, §5

blackgrass [20] = assay: Soil treatment test for upland field; type: in vivo, Alopecurus aegualis; set-up: key: 0 = normal development, 5 = all killed; settings: 500 g/ha, 3 weeks, glass house 25° C.
Protocol: as §1, §2, §3, §4, §5

barnyardgrjass = assay: Foliar spread test for upland field; type: in vivo, Eschinochloa crusgalli; set-up: key: 0 = normal development, 5 = all killed (6 ranks vs. untreated); settings: foliar spray, 500 ppm, 3 weeks, glass house 25° C.
Protocol: as §1, §6, §7, §8, §5

velvetleaf [21] = assay: Foliar spread test for upland field; type: in vivo, Abutilon theophrasti; set-up: key: 0 = normal development, 5 = all killed (6 ranks vs. untreated); settings: foliar spray, 500 ppm, 3 weeks, glass house 25° C.
Protocol: as §1, §6, §7, §8, §5

Large crabgrass [22] = assay: Soil treatment test for upland field; type: in vivo, Digitaria adscendens; set-up: key: 0 = normal development, 5 = all killed; settings: 500 g/ha, 3 weeks, glass house 25° C.
Protocol: as §1, §2, §3, §4, §5

barnyard grass = assay: Soil treatment test for upland field; type: in vivo, Eschinochloa crusgalli; set-up: key: 0 = normal development, 5 = all killed; settings: 500 g/ha, 3 weeks, glass house 25° C.
Protocol: as §1, §2, §3, §4, §5

green foxtail [23] = assay: Foliar spread test for upland field; type: in vivo, Setaria viridis; set-up: key: 0 = normal development, 5 = all killed (6 ranks vs. untreated); settings: foliar spray, 500 ppm, 3 weeks, glass house 25° C.
Protocol: as §1, §6, §7, §8, §5

common lambsquarters [24] = assay: Foliar spread test for upland field; type: in vivo, Chenopodium album; set-up: key: 0 = normal development, 5 = all killed (6 ranks vs. untreated); settings: foliar spray, 500 ppm, 3 weeks, glass house 25° C.
Protocol: as §1, §6, §7, §8, §5

Row | SMILES | Effects Livid amaranth (livid amaranth [1]) | Effects Large crabgrass (Large crabgrass [2]) | Effects Soybean (soybean) | Effects Sugar beat (sugar beat [3]) | Effects Corn (corn [4]) | Effects Sotton (cotton) | Effects Wheat (wheat [5]) | Effects Solgum (solgum [6]) | Effects Morning glory (morning glory [7]) | Effects Common lambsquarters (common lambsquarters [8]) | Effects Annual bluegrass (annual bluegrass [9]) | Effects Livid amaranth (livid amaranth [10]) | Effects Annual bluegrass (annual bluegrass [11]) | Effects Morning glory (morning glory [12]) | Effects Sugar beat (sugar beat [13]) | Effects Corn (corn [14]) | Effects Wheat (wheat [15]) | Effects Solgum (solgum [16]) | Effects Green foxtail (green foxtail [17]) | Effects Velvetleaf (velvetleaf [18]) | also measured
1 | CC(=Cc1cccc(C(F)(F)F)c1)c1nc2cc(Cl)ccc2o1 [I-c-53] | 5 | 4 | 4 | 5 | 3 | 3 | 1 | 1 | 5 | 5 | 5 | 5 | 4 | 2 | 5 | 1 | 1 | 0 | 5 | 1 | Effects Blackgrass (blackgrass [19]): 4; Effects Blackgrass (blackgrass [20]): 5; Effects Barnyardgrass (barnyardgrjass): 1; Effects Velvetleaf (velvetleaf [21]): 3; Effects Large crabgrass (Large crabgrass [22]): 5; Effects Barnyardgrass (barnyard grass): 5; Effects Green foxtail (green foxtail [23]): 5; Effects Common lambsquarters (common lambsquarters [24]): 5
2 | CCC(=Cc1cccc(C(F)(F)F)c1)c1nc2cc(Br)ccc2o1 [I-c-67] | 5 | 4 | 5 | 4 | 3 | 5 | 2 | 3 | 5 | 5 | 5 | 5 | 4 | 4 | 5 | 2 | 1 | 5 | 5 | 5 | Effects Blackgrass (blackgrass [19]): 4; Effects Blackgrass (blackgrass [20]): 5; Effects Barnyardgrass (barnyardgrjass): 3; Effects Velvetleaf (velvetleaf [21]): 4; Effects Large crabgrass (Large crabgrass [22]): 5; Effects Barnyardgrass (barnyard grass): 5; Effects Green foxtail (green foxtail [23]): 4; Effects Common lambsquarters (common lambsquarters [24]): 5
3 | CCCC(=Cc1cccc(C(F)(F)F)c1)c1nc2cc([N+](=O)[O-])ccc2o1 [I-c-74] | 5 | 4 | 5 | 4 | 2 | 5 | 2 | 2 | 5 | 5 | 5 | 5 | 4 | 5 | 5 | 2 | 1 | 2 | 5 | 5 | Effects Blackgrass (blackgrass [19]): 2; Effects Blackgrass (blackgrass [20]): 4; Effects Barnyardgrass (barnyardgrjass): 2; Effects Velvetleaf (velvetleaf [21]): 4; Effects Large crabgrass (Large crabgrass [22]): 5; Effects Barnyardgrass (barnyard grass): 5; Effects Green foxtail (green foxtail [23]): 5; Effects Common lambsquarters (common lambsquarters [24]): 5
4 | CCCC(=Cc1cccc(C(F)(F)F)c1)c1nc2cc(C#N)ccc2o1 [I-c-83] | 5 | 4 | 4 | 5 | 3 | 5 | 2 | 3 | 5 | 5 | 5 | 5 | 4 | 5 | 5 | 2 | 1 | 1 | 5 | 5 | Effects Blackgrass (blackgrass [19]): 4; Effects Blackgrass (blackgrass [20]): 5; Effects Barnyardgrass (barnyardgrjass): 2; Effects Velvetleaf (velvetleaf [21]): 4; Effects Large crabgrass (Large crabgrass [22]): 5; Effects Barnyardgrass (barnyard grass): 4; Effects Green foxtail (green foxtail [23]): 5; Effects Common lambsquarters (common lambsquarters [24]): 5
